{"source": "patent US20230218541A1", "about": "“Enhanced Moisturizing Lotion Compositions” (priority 2019, published 2023)", "origin": "cited, not measured here", "data": [{"test_system": "coronaviruses, including SARS-CoV-2, SARS-CoV, MERS-CoV, and HCoVs", "settings": "62% to 71% ethanol, 0.5% hydrogen peroxide or 0.1% sodium hypochlorite", "values": [{"smiles": "CCO", "note": "[ethanol]", "Time to efficient inactivation of coronaviruses on contact with surface disinfectant": "one"}, {"smiles": "OO", "note": "[hydrogen peroxide]", "Time to efficient inactivation of coronaviruses on contact with surface disinfectant": "one"}, {"smiles": "OCl", "note": "[sodium hypochlorite]", "Time to efficient inactivation of coronaviruses on contact with surface disinfectant": "one"}]}]}
